# “And” between values parts separate entries of the source, which are not always exact repeats. Equal entries are not always repeated. Where two headings read alike, the source gives them in different places.
# Assays:
# human ENPP1 = molecular target: T1, human ENPP1 (Homo sapiens, UniProt P22413); assay: Luminescence-based AMP-Glo ENPP1 enzyme inhibition assay with 2′,3′-cGAMP substrate; assay type: biochemical; conditions: 2′,3′-cGAMP 300 µM, ENPP1 5 µM
# T1 construct: purchased Origene
# T1 sequence (P22413 1-925): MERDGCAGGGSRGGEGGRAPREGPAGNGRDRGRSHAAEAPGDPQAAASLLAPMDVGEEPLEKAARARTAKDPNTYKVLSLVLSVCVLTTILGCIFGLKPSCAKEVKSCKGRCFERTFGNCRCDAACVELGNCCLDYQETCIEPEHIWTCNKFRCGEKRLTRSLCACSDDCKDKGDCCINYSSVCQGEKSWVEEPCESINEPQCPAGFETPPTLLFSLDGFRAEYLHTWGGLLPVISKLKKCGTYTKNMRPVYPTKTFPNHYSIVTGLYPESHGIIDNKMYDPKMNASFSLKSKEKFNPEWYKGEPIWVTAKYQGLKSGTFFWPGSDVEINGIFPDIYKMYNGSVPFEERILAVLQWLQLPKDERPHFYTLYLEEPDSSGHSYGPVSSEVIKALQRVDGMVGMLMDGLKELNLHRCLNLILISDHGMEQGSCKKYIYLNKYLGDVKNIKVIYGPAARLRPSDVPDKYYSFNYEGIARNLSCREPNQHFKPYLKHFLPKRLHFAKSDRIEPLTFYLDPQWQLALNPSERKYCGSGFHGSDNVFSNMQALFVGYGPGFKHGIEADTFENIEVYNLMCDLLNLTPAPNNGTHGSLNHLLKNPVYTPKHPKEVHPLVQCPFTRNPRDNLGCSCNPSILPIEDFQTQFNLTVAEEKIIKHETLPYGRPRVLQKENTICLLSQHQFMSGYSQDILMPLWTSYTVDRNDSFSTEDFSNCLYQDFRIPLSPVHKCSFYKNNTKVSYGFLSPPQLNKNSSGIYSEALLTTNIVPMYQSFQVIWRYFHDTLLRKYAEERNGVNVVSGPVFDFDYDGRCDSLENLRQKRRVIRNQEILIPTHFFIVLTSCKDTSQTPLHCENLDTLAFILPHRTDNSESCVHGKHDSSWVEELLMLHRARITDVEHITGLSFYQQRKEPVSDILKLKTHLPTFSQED
# Vero cells = assay: Vero cell cytotoxicity, resazurin dye reduction assay; assay type: cell-based, African green monkey
# M.tb CdnP [1] = molecular target: T2, M.tb CdnP (Mycobacterium tuberculosis, UniProt P71615); assay: biochemical
# M.tb CdnP [2] = molecular target: T2, M.tb CdnP; assay type: biochemical
# [3] = test system: RAW-Blue IRF3 ISG reporter macrophages; assay: IRF3 induction in RAW-Blue IRF3-SEAP reporter macrophages after 2′,3′-cGAMP transfection (QUANTI-Blue); assay type: cell-based, mouse; conditions: 165 µM E-3 plus 1 nM 2′,3′-cGAMP, 24 h
# [4] = test system: primary human monocyte-derived macrophages (hMDMs); assay: IFN-β release by human monocyte-derived macrophages after 2′,3′-cGAMP transfection (ELISA); assay type: cell-based
# [5] = Vero cell growth inhibition, 48 h then resazurin overnight
# [6] = Vero cell growth inhibition, 48 h then resazurin overnight, read-out: IC50 Vero cells
# [7] = Chlorocebus sabaeus, Vero, 48 h, Vero cell growth inhibition, 48 h then resazurin overnight, read-out: IC50 Vero cells
# [8] = 1 nM 2′,3′-cGAMP in the presence of 165 µM E-3, 24 h
# T2 sequence (P71615 whole entry, looked up): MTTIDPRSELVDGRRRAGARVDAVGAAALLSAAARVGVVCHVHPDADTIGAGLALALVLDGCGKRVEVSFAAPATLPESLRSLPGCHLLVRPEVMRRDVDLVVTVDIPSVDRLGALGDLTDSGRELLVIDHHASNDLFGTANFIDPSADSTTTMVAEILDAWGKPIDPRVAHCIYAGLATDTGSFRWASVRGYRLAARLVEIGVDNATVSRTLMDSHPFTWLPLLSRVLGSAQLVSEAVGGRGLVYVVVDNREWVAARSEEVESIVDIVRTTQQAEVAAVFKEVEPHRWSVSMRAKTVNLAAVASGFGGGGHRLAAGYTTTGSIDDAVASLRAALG
Molecule,IC50 (human ENPP1),IC50 (Vero cells; [6]) [µM],IC50 (Vero cells; [7]) [µg/mL],IC50 (M.tb CdnP [1]; IC50 CdnP),also measured
NC1CC2NC3CCCCC3NC2CC1N (stereo not drawn) [Inhibitor E-37],44.6 µM,,,,"IC50 (Vero cells; Chlorocebus sabaeus, Vero, 48 h, read-out: IC50 Vero cells, Vero cell growth inhibition, 48 h then resazurin overnight): > 100 µg/mL; IC50 (Vero cells; read-out: IC50 Vero cells, Vero cell growth inhibition, 48 h then resazurin overnight): > 446 µM"
O=C(C[N+]12CN3CN(CN(C3)C1)C2)c1ccc2ccccc2c1 [Inhibitor C-5],> 257 µM,154,,,IC50 ENPP1 (human ENPP1): > 100 µg/mL; IC50 Vero cells (Vero cells; [5]): 60 µg/mL; IC50 CdnP (M.tb CdnP [1]): 28.8 (11.2) µg/mL; IC50 (M.tb CdnP [1]; read-out: IC50 CdnP): 28.8 µM
c-di-AMP,,,,,Km (M.tb CdnP [2]): 51.4 µM; Vmax for CdnP (M.tb CdnP [2]): 0.5664 µM/min
Cc1ccc(S(=O)(=O)NN=c2nc(N3CCCC3)[nH]c(N3CCCC3)n2)cc1 [Inhibitor C-34],63.3 µM and 63.4 µM,> 247,> 100,13.1 µM,
O=C(NNc1nc(NC2CCCCC2)nc(NC2CCCCC2)n1)c1ccccc1 [Inhibitor E-60],9.8 µM and 9.77 µM,> 245,> 100,,
O=C(Nc1n[nH]c(NC(=O)c2ccccc2)n1)c1ccccc1 [Inhibitor E-27],16.3 µM,> 326,> 100,,
Cc1ccc(Nc2nc(N)nc(Nc3ccc4ccccc4c3)n2)cc1 [Inhibitor E-3],26.4 µM and 29.2 µM,> 264,> 100,,"IRF induction (SEAP signal) [3]: 1.1 A655 units; fold increased IRF signal versus cGAMP alone [3]: 2.75 fold; IFN-β release [4, 8]: 95 pg/mL; fold increase in IFN-β release versus cGAMP alone [4, 8]: 2.1 fold; IFN-β release ([4]; 165 µM E-3 alone, no cGAMP): 10 pg/mL"
CC(OCCCCOC(C)n1cnc2c(=O)nc[nH]c21)n1cnc2c(=O)nc[nH]c21 (stereo not drawn) [Inhibitor C-13],> 241 µM,> 241,> 100,9.66 µM and 9.65 µM,
c1cc2c(cc1C(N1CCNCC1)N1CCNCC1)OCO2 [Inhibitor E-12],41.1 µM,> 329,,,IC50 ENPP1 (human ENPP1): 12.5 µg/mL; IC50 Vero cells (Vero cells; [5]): > 100 µg/mL
Cc1c2cc[n+](C)cc2c(COC2OC(CO)C(O)C2O)c2c3ccccc3n(C)c12 (stereo not drawn) [Inhibitor C-29],19.4 µM,> 237,> 100,14.2 µM,
O=S(=O)(NN=c1nc(N2CCCC2)[nH]c(N2CCCC2)n1)c1ccccc1 [Inhibitor C-33],60.5 µM and 60.3 µM,> 257,> 100,18.8 µM and 18.7 µM,
NNc1nc(N2CCCCC2)c2[nH]cnc2n1 [Inhibitor C-76],> 429 µM,> 429,,,IC50 ENPP1 (human ENPP1): > 100 µg/mL; IC50 Vero cells (Vero cells; [5]): > 100 µg/mL; IC50 CdnP (M.tb CdnP [1]): 42.9 (10) µg/mL; IC50 (M.tb CdnP [1]; read-out: IC50 CdnP): 42.9 µM

# Reference: article PMC10783014, “Structure-based virtual screening and in vitro validation of inhibitors of cyclic dinucleotide phosphodiesterases ENPP1 and CdnP” (Microbiology Spectrum, 2023)
